Conditions: Gas, double Helmholtz acoustic resonator

[C-]#[O+] [carbon monoxide]
Conditions | kinematic viscosity [m2/s] | speed of sound [m/s]
225 K, 250.04 kPa | 3.74e-06 | 305.59
225 K, 371.9 kPa | 2.5e-06 | 305.42
225 K, 499.99 kPa | 1.86e-06 | 305.4
225 K, 560.56 kPa | 1.68e-06 | 305.34
225 K, 743.07 kPa | 1.25e-06 | 305.24
225 K, 750 kPa | 1.23e-06 | 305.26
225 K, 934.61 kPa | 1e-06 | 305.14
225 K, 1000 kPa | 9.4e-07 | 305.15
225 K, 1141.5 kPa | 8.17e-07 | 305.06
225 K, 1250 kPa | 7.36e-07 | 305.04
225 K, 1345.6 kPa | 6.95e-07 | 304.99
225 K, 1500 kPa | 6.19e-07 | 304.99
225 K, 1581.5 kPa | 5.88e-07 | 304.94
225 K, 1750 kPa | 5.32e-07 | 304.95
225 K, 1787.1 kPa | 5.2e-07 | 304.91
225 K, 2000 kPa | 4.66e-07 | 304.94
225 K, 2016.1 kPa | 4.63e-07 | 304.91
225 K, 2264 kPa | 4.14e-07 | 304.94
225 K, 2454.7 kPa | 3.79e-07 | 304.96
250 K, 221.65 kPa | 5.37e-06 | 322.56
250 K, 401.55 kPa | 2.88e-06 | 322.4
250 K, 587.83 kPa | 1.95e-06 | 322.43
250 K, 791.25 kPa | 1.45e-06 | 322.51
250 K, 982.55 kPa | 1.16e-06 | 322.58
250 K, 1169.1 kPa | 9.78e-07 | 322.67
250 K, 1392.3 kPa | 8.19e-07 | 322.79
250 K, 1587.8 kPa | 7.19e-07 | 322.93
250 K, 1808.2 kPa | 6.28e-07 | 323.08
250 K, 2050.1 kPa | 5.56e-07 | 323.27
250 K, 2241.5 kPa | 5.08e-07 | 323.44
275 K, 250.64 kPa | 5.04e-06 | 338.34
275 K, 286.53 kPa | 4.39e-06 | 338.19
275 K, 465.9 kPa | 2.83e-06 | 338.32
275 K, 500.41 kPa | 2.7e-06 | 338.48
275 K, 652.16 kPa | 2.07e-06 | 338.54
275 K, 750 kPa | 1.84e-06 | 338.76
275 K, 832.04 kPa | 1.63e-06 | 338.75
275 K, 1000 kPa | 1.37e-06 | 338.99
275 K, 1045.4 kPa | 1.3e-06 | 338.99
275 K, 1250 kPa | 1.11e-06 | 339.26
275 K, 1252.2 kPa | 1.09e-06 | 339.22
275 K, 1443.1 kPa | 9.45e-07 | 339.46
275 K, 1500 kPa | 9.2e-07 | 339.57
275 K, 1675 kPa | 8.12e-07 | 339.74
275 K, 1750 kPa | 7.89e-07 | 339.89
275 K, 1882.7 kPa | 7.23e-07 | 340.02
275 K, 2000 kPa | 6.96e-07 | 340.23
275 K, 2150.8 kPa | 6.33e-07 | –
